Key:
[1] = tested on: C57BL/6J mice induced with high-fat diet (HFD) and CCl4; experiment: HFD/CCl4 NASH mouse model, liver histology (NAS score, fibrosis); format: in vivo
Experimental: Male C57BL/6J mice with an age of 18 weeks were purchased from GemPharmatech Co., Ltd (Nanjing, Jiangsu). Mice were first fed with high-fat diet (HFD) for 11 weeks to induced obesity. Carbon tetrachloride (25% CCl4, 0.5 μl/g) was then intraperitoneally injected twice weekly for 4 consecutive weeks, to induce liver damages, leading to inflammation, cell death and fibrosis. The day of the first carbon tetrachloride injection was dated as day 0. At day 7, the animals were randomized and treatment started. The test article administration and the animal numbers in each group are shown in the following experimental design Table 3.
All animals were euthanatized at day 28 to collect blood and liver samples for biochemical and histological analysis.
Liver tissue from animals in each group were analyzed for NAS scores.
Specifically, the scores assessed were: • 1) the unweighted sum of the steatosis (0-3); • 2) lobular inflammation (0-3); • 3) hepatocellular ballooning (0-2); and • 4) liver fibrosis score (0-4), after Sirius red staining.
Liver tissues of each group of animals were taken, and NAS scores were analyzed by hematoxylin-eosin (HE) staining, and liver fibrosis was analyzed by Sirius red staining.
After staining, the NAS scores of the prepared samples were evaluated. In hematoxylin-eosin stained sections, NAS scores were evaluated according to the degree of steatosis, inflammatory cell infiltration and […].
After staining, fibrosis of the liver was additionally evaluated. All sections stained with Sirius Red were scanned by an Aperio VERSA 200 Brightfield & Fluorescenc slice scanner. Two fields were randomly selected under a 5×field of view. The two fields covered 85% of the liver tissue area. Quantitative analysis to calculate the area of fibrosis deposition in the slices was performed.
(§1) Prism, version 6, (GraphPad Software Inc., San Diego, CA) was used for all statistical analysis and for graphic presentation.
After drug treatment for 21 days, animals were euthanatized to collect liver samples for pathological analysis.

[2] = tested on: rats with DEN-HFD-CHOL induced non-alcoholic steatohepatitis; experiment: DEN-HFD-CHOL induced NASH rat model, liver histology (NAS score, fibrosis); format: in vivo; conditions: 42 days; for NAS score (FIG. 3B) / ballooning (FIG. 3B) / steatosis, lobular inflammation and hepatocellular ballooning (HE-staining of liver tissue, FIG. 3A): Compound 1 10 and 30 mg/kg, GFT505 30 mg/kg
From the text: Male SD rats, with an age of 10 days, were purchased from Vital River Co., Ltd (Beijing).
The rats were given a one-time intraperitoneal injection of diethylnitrosamine (DEN) two weeks after birth, and continued breast milk feeding for two weeks.
After four weeks, a total of 56 male rats were selected and divided into 7 groups according to animal weight. The rats were started on a high-fat, high-cholesterol diet (HFD-CHOL), with a feeding cycle of 12 weeks. Before intraperitoneal injection of DEN, 5 male rats were randomly selected for parallel feeding as a control cohort, which were fed a standard diet and not injected with DEN.
After 7 weeks of HFD-CHOL diet feeding, the animals were randomized and treatment with vehicle or the indicated compound was started. The test article administration and the animal numbers in each group are shown in the following experimental design Table 5.
The body weight of animals was measured at the day of the last administration (the end of the test). After the animal were fasted for 6 hours, all animals were euthanatized to collect blood and liver samples for biochemical and histological analysis.
Liver tissue from animals in each group were analyzed for NAS scores, the unweighted sum of the steatosis (0-3), lobular inflammation (0-3) and hepatocellular ballooning (0-2) scores, after HE-staining, and analyzed for liver fibrosis score (0-4) after Sirius red staining.
Liver tissue from animals in each group were analyzed for NAS scores using the methods disclosed above in Example 16. Specifically, the scores assessed were: • 1) the unweighted sum of the steatosis (0-3); • 2) lobular inflammation (0-3); • 3) hepatocellular ballooning (0-2); and • 4) liver fibrosis score (0-4), after Sirius red staining.
as §1
After drug treatment for 42 days, animals were euthanatized to collect liver samples for pathological analysis.

Mcl-1 = Mcl-1 (Homo sapiens, UniProt Q07820); experiment: FP saturation binding of fluorescent probe to Mcl-1; conditions: 2 nM probe, read-out: Kd of Flu-BID to Mcl-1
Experimental: Fluorescence polarization values were measured using an Infinite M-1000 plate reader (Tecan U.S., Research Triangle Park, N.C.) in Microfluor 96-well, black, round-bottom plates (Thermo Scientific). […] Plates were mixed and incubated at room temperature for 1 hour with gentle shaking to assure equilibrium. […] Equilibrium dissociation constants (Kd) were then calculated by fitting the sigmoidal dose-dependent FP increases as a function of protein concentrations using Graphpad Prism 5.0 software (Graphpad Software, San Diego, Calif.).

[3] = Compound 1 50 mg/kg qd p.o., 21 days
[4] = Compound 1 10 and 30 mg/kg vs GFT505 30 mg/kg, qd p.o.

Sequence of Mcl-1 (Q07820 whole entry): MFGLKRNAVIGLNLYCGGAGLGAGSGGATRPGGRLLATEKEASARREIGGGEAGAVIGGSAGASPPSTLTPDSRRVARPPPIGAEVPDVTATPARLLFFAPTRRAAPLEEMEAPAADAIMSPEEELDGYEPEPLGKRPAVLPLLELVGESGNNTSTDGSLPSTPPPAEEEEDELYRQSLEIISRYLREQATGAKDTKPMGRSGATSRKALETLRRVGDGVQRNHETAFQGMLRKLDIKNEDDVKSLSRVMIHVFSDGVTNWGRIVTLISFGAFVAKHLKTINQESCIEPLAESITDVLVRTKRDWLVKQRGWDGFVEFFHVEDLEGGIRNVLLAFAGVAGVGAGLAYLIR

Row | Compound | fibrosis (Sirius red staining, fibrosis score, FIG. 2A/2B) ([1]; Compound 1 50 mg/kg qd p.o. single agent, in comparison to OCA) | ballooning (NAS score analysis, FIG. 1B) [1, 3] | steatosis (NAS score analysis, FIG. 1B) [1, 3] | steatosis, lobular inflammation and hepatocellular ballooning (HE-staining of liver tissue, FIG. 1A) ([1]; Compound 1 50 mg/kg qd p.o., OCA 30 mg/kg qd p.o., alone or combined, 21 days) | anti-inflammation effect compared with OCA alone ([1]; Compound 1 50 mg/kg vs OCA 30 mg/kg, qd p.o., 21 days) | inflammation (NAS score analysis, FIG. 1B) ([1]; Compound 1 50 mg/kg, OCA 30 mg/kg, qd p.o., 21 days) | fibrosis (Sirius red staining, fibrosis score, FIG. 4A/4B) ([2]; Compound 1 10 and 30 mg/kg qd p.o.) | anti-inflammation effects compared with GFT505 [2, 4] | effects on steatosis compared with GFT505 [2, 4] | NAS score (FIG. 3B) ([2]; qd p.o.) | ballooning (FIG. 3B) ([2]; qd p.o.) | steatosis, lobular inflammation and hepatocellular ballooning (HE-staining of liver tissue, FIG. 3A) ([2]; qd p.o.) | Kd (Mcl-1) [nM]
1 | O=C(NS(=O)(=O)c1ccc(NC[C@H]2COCCO2)c([N+](=O)[O-])c1)c1ccc(N2CCN(CC3=C(c4ccc(Cl)cc4)CC4(CCC4)CC3)CC2)cc1Oc1cnc2[nH]ccc2c1 [Compound 1, (S)-N-((4-(((1,4-dioxan-2-yl)methyl)amino)-3-nitrophenyl)sulfonyl)-2-((1H-pyrrolo[2,3-b]pyridin-5-yl)oxy)-4-(4-((6-(4-chlorophenyl)spiro[3.5]non-6-en-7-yl)methyl)piperazin-1-yl)benzamide] | modest effect | modest effects | reduced | alleviated | better anti-inflammation effect than OCA alone | reduced | modest alleviation | improved anti-inflammation effects | more modest effects | significantly reduced | completely abolished | alleviated | –
2 | CSc1ccc(C(=O)/C=C/c2cc(C)c(OC(C)(C)C(=O)O)c(C)c2)cc1 [GFT505, elafibranor, reference compound] | – | – | – | – | – | – | – | – | – | significantly reduced | completely abolished | alleviated | –
3 | Flu-BID: Fluorescein labeled BID (79-99) peptide, fluorescent probe in FP assay for Mcl-1 | – | – | – | – | – | – | – | – | – | – | – | – | 6.9 ± 0.9

Source: US20230398110A1, “COMPOSITIONS AND METHODS FOR TREATING NON-ALCOHOLIC STEATOHEPATITIS” (ASCENTAGE PHARMA (SUZHOU) CO., LTD., priority 2020, published 2023)
